The text below walks through data of PubChem BioAssay AID1259407 (Chemical Carcinogenesis Research Information System (CCRIS), 2018).

For this data set, the system named is CCRIS mutagenicity, Ames/micronucleus/aberration tests. Kind of data set: CCRIS mutagenicity studies.
[1] abbreviates: Test System: AMES SALMONELLA TYPHIMURIUM, Strain/Indicator: TA98, Metabolic Activation: NONE, Method: STANDARD PLATE.
Where [2] appears, read: Test System: AMES SALMONELLA TYPHIMURIUM, Strain/Indicator: TA98, Metabolic Activation: RAT, LIVER, S-9, AROCLOR 1254, Method: STANDARD PLATE.
Setting [3] is: Test System: AMES SALMONELLA TYPHIMURIUM, Strain/Indicator: TA100, Metabolic Activation: NONE, Method: STANDARD PLATE.
The mark [4] stands for this setting: Test System: AMES SALMONELLA TYPHIMURIUM, Strain/Indicator: TA100, Metabolic Activation: RAT, LIVER, S-9, AROCLOR 1254, Method: STANDARD PLATE.
[5] abbreviates: Test System: AMES SALMONELLA TYPHIMURIUM, Strain/Indicator: TA1535, Metabolic Activation: NONE, Method: STANDARD PLATE.
The mark [6] stands for this setting: Test System: AMES SALMONELLA TYPHIMURIUM, Strain/Indicator: TA1535, Metabolic Activation: RAT, LIVER, S-9, AROCLOR 1254, Method: STANDARD PLATE.
The mark [7] stands for this setting: Test System: AMES SALMONELLA TYPHIMURIUM, Strain/Indicator: TA1537, Metabolic Activation: NONE, Method: STANDARD PLATE.
Where [8] appears, read: Test System: AMES SALMONELLA TYPHIMURIUM, Strain/Indicator: TA1537, Metabolic Activation: RAT, LIVER, S-9, AROCLOR 1254, Method: STANDARD PLATE.
The mark [9] stands for this setting: Test System: AMES SALMONELLA TYPHIMURIUM, Strain/Indicator: TA1538, Metabolic Activation: NONE, Method: STANDARD PLATE.
[10] abbreviates: Test System: AMES SALMONELLA TYPHIMURIUM, Strain/Indicator: TA1538, Metabolic Activation: RAT, LIVER, S-9, AROCLOR 1254, Method: STANDARD PLATE.

Calls of active or inactive are those of the source. How the calls were made is not given here.

For the molecule `OC[C@@H](O)[C@@H](O)[C@H](O)[C@H](O)CO`, the mutagenic call is “inactive; negative” (End Point: IN VITRO CHROMOSOMAL ABERRATIONS, Test System: CHO CELLS, Metabolic Activation: NONE); “inactive; negative” (End Point: IN VITRO CHROMOSOMAL ABERRATIONS, Test System: CHO CELLS, Metabolic Activation: RAT, LIVER, S-9, AROCLOR 1254); “inactive; negative” (Test System: AMES SALMONELLA TYPHIMURIUM, Strain/Indicator: TA97, Metabolic Activation: NONE, Method: PREINCUBATION); “inactive; negative” (Test System: AMES SALMONELLA TYPHIMURIUM, Strain/Indicator: TA97, Metabolic Activation: S-9, Method: PREINCUBATION); “inactive; negative” under setting [1]; “inactive; negative” under setting [2]. Also, the mutagenic call is, setting by setting: under setting [3], “inactive; negative”; under setting [4], “inactive; negative”; (Test System: AMES SALMONELLA TYPHIMURIUM, Strain/Indicator: TA102, Metabolic Activation: NONE, Method: PREINCUBATION) “inactive; negative”; (Test System: AMES SALMONELLA TYPHIMURIUM, Strain/Indicator: TA102, Metabolic Activation: S-9, Method: PREINCUBATION) “inactive; negative”; under setting [5], “inactive; negative”; under setting [6], “inactive; negative”. The mutagenic call runs as follows: under setting [7], “inactive; negative”; under setting [8], “inactive; negative”; under setting [9], “inactive; negative”; under setting [10], “inactive; negative”; (Test System: E. COLI, Strain/Indicator: WP2, Metabolic Activation: NONE, Method: STANDARD PLATE) “inactive; negative”; (Test System: E. COLI, Strain/Indicator: WP2, Metabolic Activation: RAT, LIVER, S-9, AROCLOR 1254, Method: STANDARD PLATE) “inactive; negative”.

As for `COc1cc(NS(C)(=O)=O)ccc1Nc1c2ccc(N=[N+]=[N-])cc2nc2c(C)cccc12`, the mutagenic call under setting [7] was “active; positive”.

In the case of `c1ccc2cc3c(cc2c1)c1c(c2ccccc23)O1`, the mutagenic call under setting [3] is “active; positive”.

In the case of `C=CCBr`, the mutagenic call (End Point: IN VITRO CHROMOSOMAL ABERRATIONS, Test System: CHL CELLS, Metabolic Activation: NONE) is “active; positive (structural changes)”; the mutagenic call (End Point: IN VITRO CHROMOSOMAL ABERRATIONS, Test System: CHL CELLS, Metabolic Activation: RAT, LIVER, S-9, SODIUM PHENOBARBITAL AND 5,6-BENZOFLAVONE) was “inactive; negative; authors report equivocal results for structural changes at 0.06 mg/ml”; the mutagenic call (End Point: In vivo micronucleus, Species: Mouse, Strain/Sex: C57BL/6/Male, Route: Oral) is “inactive; negative”; the mutagenic call (End Point: In vivo micronucleus, Test System: Peripheral blood normochromatic erythrocytes, Species: Mouse, Strain/Sex: C57BL/6/Female, Route: Oral) was “inactive; negative”; the mutagenic call (End Point: In vivo micronucleus, Test System: Peripheral blood normochromatic erythrocytes, Species: Mouse, Strain/Sex: FVB/N/Female, Route: Oral) is “inactive; negative”; the mutagenic call (End Point: In vivo micronucleus, Test System: Peripheral blood normochromatic erythrocytes, Species: Mouse, Strain/Sex: FVB/N/Male, Route: Oral) is “inactive; negative”. Also, the mutagenic call was “inactive; negative” (End Point: In vivo micronucleus, Test System: Peripheral blood normochromatic erythrocytes, Species: Mouse, Strain/Sex: P53 Haploinsufficient/Female, Route: Oral); “inactive; negative” (End Point: In vivo micronucleus, Test System: Peripheral blood normochromatic erythrocytes, Species: Mouse, Strain/Sex: P53 Haploinsufficient/Male, Route: Oral); “inactive; negative” (End Point: In vivo micronucleus, Test System: Peripheral blood normochromatic erythrocytes, Species: Mouse, Strain/Sex: Tg.AC Hemizygous/Female, Route: Oral); “inactive; negative” (End Point: In vivo micronucleus, Test System: Peripheral blood normochromatic erythrocytes, Species: Mouse, Strain/Sex: Tg.AC Hemizygous/Male, Route: Oral); “inactive; negative” (Test System: Ames Salmonella typhimurium, Strain/Indicator: TA98, Metabolic Activation: Hamster, Liver, S-9, Aroclor 1254 (30%), Method: Standard plate); “inactive; negative” (Test System: Ames Salmonella typhimurium, Strain/Indicator: TA98, Metabolic Activation: None, Method: Standard plate). The mutagenic call by setting is: (Test System: Ames Salmonella typhimurium, Strain/Indicator: TA98, Metabolic Activation: Rat, Liver, S-9, Aroclor 1254 (30%), Method: Standard plate) “inactive; negative”; (Test System: Ames Salmonella typhimurium, Strain/Indicator: TA100, Metabolic Activation: Hamster, Liver, S-9, Aroclor 1254 (30%), Method: Standard plate) “active; positive (weak response)”; (Test System: Ames Salmonella typhimurium, Strain/Indicator: TA100, Metabolic Activation: None, Method: Standard plate) “active; positive”; (Test System: Ames Salmonella typhimurium, Strain/Indicator: TA100, Metabolic Activation: Rat, Liver, S-9, Aroclor 1254 (30%), Method: Standard plate) “active; positive”.

For `Nc1ccc(N=Nc2ccc(N)cc2)cc1`, the mutagenic call was “active; positive” (Test System: AMES SALMONELLA TYPHIMURIUM, Strain/Indicator: TA98, Metabolic Activation: HAMSTER, LIVER, S-9, AROCLOR 1254, Method: STANDARD PLATE); “inactive; negative” under setting [1]; “active; positive” (Test System: AMES SALMONELLA TYPHIMURIUM, Strain/Indicator: TA98, Metabolic Activation: RAT, LIVER, S-9, AROCLOR 1254, Method: PREINCUBATION); “active; positive” under setting [2]; “inactive; negative” under setting [3]; “inactive; negative” under setting [4]. The mutagenic call under setting [5] was “inactive; negative”; the mutagenic call under setting [6] was “inactive; negative”; the mutagenic call under setting [7] is “inactive; negative”; the mutagenic call under setting [8] was “inactive; negative”; the mutagenic call under setting [9] was “inactive; negative”; the mutagenic call under setting [10] is “active; positive”.

With `O=C1CC[C@@]2(O)[C@H]3Cc4ccc(O)c5c4[C@@]2(CCN3CC2CC2)[C@H]1O5`, the mutagenic call (Test System: UDS HUMAN FIBROBLASTS, Strain/Indicator: THY INCORP (NON-S-PHASE), Metabolic Activation: NONE, Method: AUTORADIOGRAPHY) was “active; positive”.

Turning to `C=C1C(=O)O[C@@H]2[C@H]1CC[C@H](C)[C@@H]1C=CC(=O)[C@@]21C`, the mutagenic call was “inactive; negative” under setting [1], “inactive; negative” under setting [2], “inactive; negative” under setting [3] and “inactive; negative” under setting [4].
